Measurements from PubChem BioAssay (NCI).
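Tested at 5 concentrations; 48 h exposure; 96-well plates; endpoints linearly interpolated, else capped at highest concentration. GI50: concentration for 50% inhibition of growth. TGI marks complete inhibition of growth.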

Experiments:
Test in all cases: NCI-60 cell line screen, 48 h
786-0 renal = system: 786-0 renal
A498 renal = system: A498 renal
A549 NSCLC = system: A549 NSCLC
ACHN renal = system: ACHN renal
BT-549 breast = system: BT-549 breast
CAKI-1 renal = system: CAKI-1 renal
COLO 205 colon = system: COLO 205 colon
DU-145 prostate = system: DU-145 prostate
EKVX NSCLC = system: EKVX NSCLC
HCT-116 colon = system: HCT-116 colon
HCT-15 colon = system: HCT-15 colon
HL-60(TB) leukemia = system: HL-60(TB) leukemia
HOP-62 NSCLC = system: HOP-62 NSCLC
HOP-92 NSCLC = system: HOP-92 NSCLC
HS 578T breast = system: HS 578T breast
HT29 colon = system: HT29 colon
IGROV1 ovarian = system: IGROV1 ovarian
K-562 leukemia = system: K-562 leukemia
KM12 colon = system: KM12 colon
LOX IMVI melanoma = system: LOX IMVI melanoma
M14 melanoma = system: M14 melanoma
MALME-3M melanoma = system: MALME-3M melanoma
MCF7 breast = system: MCF7 breast
MDA-MB-231 breast = system: MDA-MB-231 breast
MDA-MB-435 = system: MDA-MB-435
MOLT-4 leukemia = system: MOLT-4 leukemia
NCI-H226 lung = system: NCI-H226 lung
NCI-H23 lung = system: NCI-H23 lung
NCI-H460 lung = system: NCI-H460 lung
NCI-H522 lung = system: NCI-H522 lung
OVCAR-4 ovarian = system: OVCAR-4 ovarian
OVCAR-5 ovarian = system: OVCAR-5 ovarian
OVCAR-8 ovarian = system: OVCAR-8 ovarian
PC-3 prostate = system: PC-3 prostate
RPMI-8226 leukemia = system: RPMI-8226 leukemia
RXF 393 renal = system: RXF 393 renal
SF-268 CNS = system: SF-268 CNS
SF-295 CNS = system: SF-295 CNS
SF-539 CNS = system: SF-539 CNS
SK-MEL-2 melanoma = system: SK-MEL-2 melanoma
SK-MEL-28 melanoma = system: SK-MEL-28 melanoma
SK-MEL-5 melanoma = system: SK-MEL-5 melanoma
SK-OV-3 ovarian = system: SK-OV-3 ovarian
SN12C renal = system: SN12C renal
SNB-19 CNS = system: SNB-19 CNS
SNB-75 CNS = system: SNB-75 CNS
SW-620 colon = system: SW-620 colon
T-47D breast = system: T-47D breast
TK-10 renal = system: TK-10 renal
U251 CNS = system: U251 CNS
UACC-257 melanoma = system: UACC-257 melanoma
UACC-62 melanoma = system: UACC-62 melanoma
UO-31 renal = system: UO-31 renal
CCRF-CEM leukemia = system: CCRF-CEM leukemia
HCC-2998 colon = system: HCC-2998 colon
NCI/ADR-RES ovarian = system: NCI/ADR-RES ovarian
OVCAR-3 ovarian = system: OVCAR-3 ovarian

COc1cc2c(/C=C3/C(=O)Nc4ccc(O)cc43)c(Cl)[nH]c2cc1C
TGI (786-0 renal): 16.7 µM | TGI (A498 renal): 24.6 µM | TGI (A549 NSCLC): 32.9 µM | TGI (ACHN renal): 1.64 µM | TGI (BT-549 breast): 3.84 µM | TGI (CAKI-1 renal): 3.19 µM | TGI (COLO 205 colon): 0.894 µM | TGI (DU-145 prostate): 7.55 µM | TGI (EKVX NSCLC): 26.8 µM | TGI (HCT-116 colon): 6.61 µM | TGI (HCT-15 colon): 1.17 µM | TGI (HL-60(TB) leukemia): 4.08 µM | TGI (HOP-62 NSCLC): 4.55 µM | TGI (HOP-92 NSCLC): 42.6 µM | TGI (HS 578T breast): 28.5 µM | TGI (HT29 colon): 5.42 µM | TGI (IGROV1 ovarian): 20.5 µM | TGI (K-562 leukemia): 16 µM | TGI (KM12 colon): 5.35 µM | TGI (LOX IMVI melanoma): 11.9 µM | TGI (M14 melanoma): 2.02 µM | TGI (MALME-3M melanoma): 1.38 µM | TGI (MCF7 breast): > 100 µM | TGI (MDA-MB-231 breast): 4.25 µM | TGI (MDA-MB-435): 0.0441 µM | TGI (MOLT-4 leukemia): 0.387 µM | TGI (NCI-H226 lung): 3.77 µM | TGI (NCI-H23 lung): 3.78 µM | TGI (NCI-H460 lung): 19.2 µM | TGI (NCI-H522 lung): 19.5 µM | TGI (OVCAR-4 ovarian): 3.38 µM | TGI (OVCAR-5 ovarian): 30.8 µM | TGI (OVCAR-8 ovarian): 7.77 µM | TGI (PC-3 prostate): 22.2 µM | TGI (RPMI-8226 leukemia): 1.34 µM | TGI (RXF 393 renal): 30.5 µM | TGI (SF-268 CNS): 26.4 µM | TGI (SF-295 CNS): 13.5 µM | TGI (SF-539 CNS): 0.185 µM | TGI (SK-MEL-2 melanoma): 29.2 µM | TGI (SK-MEL-28 melanoma): 0.0526 µM | TGI (SK-MEL-5 melanoma): 3.29 µM | TGI (SK-OV-3 ovarian): 2.48 µM | TGI (SN12C renal): 3.06 µM | TGI (SNB-19 CNS): 22.3 µM | TGI (SNB-75 CNS): 20 µM | TGI (SW-620 colon): 20 µM | TGI (T-47D breast): 7.85 µM | TGI (TK-10 renal): 26.1 µM | TGI (U251 CNS): 2.99 µM | TGI (UACC-257 melanoma): 21.9 µM | TGI (UACC-62 melanoma): 3.08 µM | TGI (UO-31 renal): 21.1 µM

Cc1cc(C(=O)NC(C)(C)C)cc(C#Cc2ccc3c4c(oc3c2)C(C)(C)c2cc(NS(C)(=O)=O)ccc2C4=O)n1
GI50 (786-0 renal): 1.7 µM | TGI (786-0 renal): 12.5 µM | GI50 (A498 renal): 2.1 µM | TGI (A498 renal): > 100 µM | GI50 (A549 NSCLC): 3.01 µM | TGI (A549 NSCLC): > 100 µM | GI50 (ACHN renal): 1.78 µM | TGI (ACHN renal): > 100 µM | GI50 (BT-549 breast): 1.26 µM | TGI (BT-549 breast): 8.1 µM | GI50 (CAKI-1 renal): 2.51 µM | TGI (CAKI-1 renal): > 100 µM | GI50 (CCRF-CEM leukemia): 2.12 µM | TGI (CCRF-CEM leukemia): > 100 µM | GI50 (COLO 205 colon): 1.34 µM | TGI (COLO 205 colon): 5.5 µM | GI50 (DU-145 prostate): 3.17 µM | TGI (DU-145 prostate): > 100 µM | GI50 (EKVX NSCLC): 4.98 µM | TGI (EKVX NSCLC): > 100 µM | GI50 (HCC-2998 colon): 3.06 µM | TGI (HCC-2998 colon): > 100 µM | GI50 (HCT-116 colon): 1.69 µM | TGI (HCT-116 colon): > 100 µM | GI50 (HCT-15 colon): 1.93 µM | TGI (HCT-15 colon): > 100 µM | GI50 (HOP-62 NSCLC): 2.31 µM | TGI (HOP-62 NSCLC): > 100 µM | GI50 (HOP-92 NSCLC): 0.102 µM | TGI (HOP-92 NSCLC): 2.44 µM | GI50 (HT29 colon): 1.2 µM | TGI (HT29 colon): > 100 µM | GI50 (IGROV1 ovarian): 2.59 µM | TGI (IGROV1 ovarian): > 100 µM | GI50 (K-562 leukemia): 2.31 µM | TGI (K-562 leukemia): > 100 µM | TGI (KM12 colon): 40.7 µM | GI50 (LOX IMVI melanoma): 2.59 µM | TGI (LOX IMVI melanoma): > 100 µM | GI50 (M14 melanoma): 1.26 µM | TGI (M14 melanoma): 18.6 µM | GI50 (MALME-3M melanoma): 1.53 µM | TGI (MALME-3M melanoma): > 100 µM | GI50 (MCF7 breast): 1.76 µM | TGI (MCF7 breast): > 100 µM | GI50 (MDA-MB-231 breast): 3.49 µM | TGI (MDA-MB-231 breast): > 100 µM | GI50 (MDA-MB-435): 0.518 µM | TGI (MDA-MB-435): 21.1 µM | GI50 (MOLT-4 leukemia): 2.39 µM | TGI (MOLT-4 leukemia): > 100 µM | GI50 (NCI-H23 lung): 2.63 µM | TGI (NCI-H23 lung): > 100 µM | GI50 (NCI-H460 lung): 2.31 µM | TGI (NCI-H460 lung): > 100 µM | GI50 (NCI-H522 lung): 4.54 µM | TGI (NCI-H522 lung): > 100 µM | GI50 (NCI/ADR-RES ovarian): 2.86 µM | TGI (NCI/ADR-RES ovarian): > 100 µM | GI50 (OVCAR-3 ovarian): 2.82 µM | TGI (OVCAR-3 ovarian): 31.8 µM | GI50 (OVCAR-4 ovarian): 3.2 µM | TGI (OVCAR-4 ovarian): > 100 µM | GI50 (OVCAR-5 ovarian): 1.33 µM | TGI (OVCAR-5 ovarian): > 100 µM | GI50 (OVCAR-8 ovarian): 3.09 µM | TGI (OVCAR-8 ovarian): > 100 µM | GI50 (PC-3 prostate): 2.96 µM | TGI (PC-3 prostate): > 100 µM | GI50 (RPMI-8226 leukemia): 1.11 µM | TGI (RPMI-8226 leukemia): 4.67 µM | GI50 (RXF 393 renal): 0.535 µM | TGI (RXF 393 renal): 3.34 µM | GI50 (SF-268 CNS): 3.34 µM | TGI (SF-268 CNS): > 100 µM | GI50 (SF-295 CNS): 2.12 µM | TGI (SF-295 CNS): 5.64 µM | GI50 (SK-MEL-2 melanoma): 1.98 µM | TGI (SK-MEL-2 melanoma): 7.87 µM | GI50 (SK-MEL-28 melanoma): 1.93 µM | TGI (SK-MEL-28 melanoma): > 100 µM | GI50 (SK-MEL-5 melanoma): 1.84 µM | TGI (SK-MEL-5 melanoma): 5.31 µM | GI50 (SN12C renal): 1.95 µM | TGI (SN12C renal): > 100 µM | GI50 (SNB-19 CNS): 3.23 µM | TGI (SNB-19 CNS): > 100 µM | GI50 (SNB-75 CNS): 1.22 µM | TGI (SNB-75 CNS): 22.4 µM | GI50 (SW-620 colon): 1.03 µM | TGI (SW-620 colon): > 100 µM | GI50 (T-47D breast): 2.41 µM | TGI (T-47D breast): > 100 µM | GI50 (TK-10 renal): 3.99 µM | TGI (TK-10 renal): > 100 µM | GI50 (U251 CNS): 3.1 µM | TGI (U251 CNS): > 100 µM | GI50 (UACC-62 melanoma): 1.4 µM | TGI (UACC-62 melanoma): > 100 µM | GI50 (UO-31 renal): 1.2 µM | TGI (UO-31 renal): > 100 µM
